From article PMC8786932, “Bicyclic azetidines target acute and chronic stages of Toxoplasma gondii by inhibiting parasite phenylalanyl t-RNA synthetase” (Nature Communications, 2022)
Where “and” joins values, the source holds several entries; their conditions need not be identical. Equal entries are not always repeated. Where two headings read alike, the source gives them in different places.

Assays:
[1] = tested on: T. gondii tachyzoites (type II ME49-FLuc); assay: Luciferase-based tachyzoite growth assay; type: cell-based, Toxoplasma gondii; parameters: EC50 log inhib vs normalized response: unit: µM
Experimental: All assays were carried out in a 96-well plate format containing confluent HFF monolayers to support parasite growth. To avoid edge effects, only the inner 60 wells of each plate were used. All compounds described were provided by the Broad Institute as 10 mM stocks in 100% DMSO and stored at −80 °C prior to use. Pyrimethamine (Sigma-Aldrich) was prepared as 5 mM stock in 100% DMSO and stored at −20 °C prior to use.
(§1) All statistical analyses were conducted using Prism 9 (GraphPad Software, Inc.). Dose–response inhibition curves for parasite and host cell toxicity screens (EC50 values) were generated using (Log(inhibitor) vs. normalized response—Variable slope) function. […] For multiple comparisons, two-way ANOVA analysis function using either Sidák’s multiple comparisons test or Dunnett’s multiple comparisons test was applied as indicated.

in vitro [2] = type: cell-based, human; details: human, top 20 μM
Experimental: (§2) For the toxicity screen, compounds were tested in 96-well plates using all the wells as no edge affect was observed. Compounds were diluted to 40 μM (2x concentration in 10% DMEM, 0.4% DMSO) before step-wise, 3-fold dilution in 10% DMEM to create 10-dose series (20 μM to 0.001 μM). Host cells were plated in black, μ-Clear 96-well plates (Greiner Bio-One). We compared several lineages including HepG2 (human hepatocellular carcinoma (ATCC-HB-8065)), THP-1 (human monocytic tumor line), SH-SY5Y (human neuroblastoma (ATCC CRL-2266)), A549 (human lung carcinoma (ATCC CRM-CCL-185)) and Caco-2 (human intestinal adenocarcinoma (ATCC HTB-37)) and HFF (primary human foreskin fibroblast) obtained from the laboratory of John Boothroyd at Stanford University. Cells were maintained in culture media according to the formulations recommended by ATCC. Cells were plated at a density (ranging from of 5 × 10^3 to 2 × 10^4 cells/well (100 μL vol)) resulting in sub-confluent monolayers to allow expansion during the 2 day growth assay. THP-1 cells were treated with 10 ng/ml phorbol 12-myristate 13-acetate (PMA) for 24 h to differentiate into macrophages before compound addition. For all other cells, compounds were added at 6 h post seeding to host cells containing plates (200 μL final volume, 0.2% DMSO) and incubated in culture medium at 37 °C supplemented with 5% CO2. At 44 h post compound addition (50 h total growth time), culture media was aspirated and replaced with Live Imaging solution (ThermoFisher) supplemented with 10 μg/mL Hoeschst 33342 (Sigma) for 20 min at 37 °C. […] Alternatively, plates fixed with 4% formaldehyde for 10 min and stained with 10 μg/mL Hoeschst 33342 (Sigma) for 20 min and imaged using a Cytation 3 multi-mode imager (DAPI, 10x objective, 4 images/well) and nuclei quantified using the Gen5 imager software (v3.08). Assays were repeated with two technical replicates within each of two independent biological replicates.
as §1

[3] = tested on: SH-SY5Y (human neuroblastoma); assay: in vitro; type: cell-based; details: EC50 host cell/EC50 T. gondii
Experimental: as §2, §1

[4] = tested on: THP-1 (human monocytic tumor line); assay: in vitro; type: cell-based; details: EC50 host cell/EC50 T. gondii
Experimental: as §2, §1

in vitro [5] = type: cell-based; details: human, Caco-2; for selectivity ratio: EC50 host cell/EC50 T. gondii, read-out: Caco-2 fold selectivity; for EC50: nuclei count, 44 h, top 20 μM
Experimental: as §2, §1

[6] = tested on: in vitro induced T. gondii ME49-FLuc bradyzoite cysts; assay: In vitro bradyzoite growth assay, cyst size (3 d induction + 2 d treatment); type: cell-based, Toxoplasma gondii; details: for Cyst size (individual cysts): area within cyst wall, measured in microns; for effect on cyst size: at the EC90 or 3xEC90, 2 days after 3 days induction
Experimental: To monitor the effects of compounds on early bradyzoite differentiation, ME49-Fluc tachyzoites were inoculated onto HFF monolayers grown on coverslips in 24-well plates and allowed infect during a 2 h incubation in 3% DMEM (DMEM containing glutamine (10 mM), gentamycin (10 μg/mL,) and 3% FBS) at 37°C, 5% CO2. The medium was replaced with RPMI 1640 pH 8.2 and cells were cultured in ambient CO2 at 37°C for 3 days to induce bradyzoites. […] Samples were fixed and stained using biotinylated Dolichos biflorus lectin (DBL) (Vector Laboratories (#B-1035-5) […]) followed by Alexa Fluor 488 streptavidin (Thermo Fischer (#S11223) 1:1,000 dilution) and mouse mAb 8.25.8 anti-BAG1 (from Dr. Louis Wiess) (1:1,100)[56] followed by goat anti-mouse IgG conjugated to Alexa Fluor 568 (Thermo Fischer (#A-1104) 1:1,000). Samples were analyzed using a Zeiss AxioObserver Z1 equipped with Colibri LED illumination using a 40x EC Plan-Neofluar objective (N.A. 1.3) and images were captured using an ORCA-ER digital camera operated using ZEN v3.3 (Carl Zeiss). Cyst size was determined by measuring the area defined by the perimeter of the cyst wall as measured in microns.

[7] = tested on: in vitro derived T. gondii ME49-FLuc bradyzoites; assay: Plaque assay of bradyzoites induced in vitro for 14 days; type: cell-based, Toxoplasma gondii; details: Fig 5F, replicates
Experimental: To monitor the effects of compounds on more mature in vitro derived bradyzoites, ME49-Fluc tachyzoites were inoculated onto HFF monolayers grown in T25[2] flasks and bradyzoites were induced for 12 days in RPMI 1640 pH 8.2 at ambient CO2 and 37°C. Cultures were then treated with compounds at EC90 or 3XEC90 for another 2 days. At the end of 14 days, monolayers were scraped and passed through a 23 g needle to liberate cysts, followed by centrifugation (400 × g, 10 min, 4 °C). Pellets were resuspended with Pearce^TM streptavidin magnetic beads (Thermo Fisher) pre-coupled with biotinylated DBL (Vector laboratories) and incubated for 1 h at 4 °C. Beads were collected and washed twice using a magnetic stand, followed by treatment with 0.25 mg/ml trypsin for 10 min to liberate bradyzoites. Released bradyzoites were collected from the supernatant and counted using a hemocytometer. Bradyzoites were inoculated onto 6-well plates confluent with HFF monolayers and cultured for 14 days, followed by ethanol fixation and staining with 0.01% crystal violet. Plaques or foci of infection were imaged using an Axiovert 100 microscope equipped with an AxioCam color camera and analyzed by ImageJ.

[8] = tested on: blood-stage P. falciparum; details: Fig 2A Tg_Pf_Cp EC50s; previously reported values, reference not visible in the shown part; cited from earlier work
[9] = Fig 1A rank order, T. gondii growth
[10] = Toxoplasma gondii, Fig 2A Tg_Pf_Cp EC50s, read-out: EC50 T. gondii
[11] = Toxoplasma gondii, ME49-FLuc, 10-point dose-response, two biological replicates, read-out: EC50, T. gondii tachyzoite growth
[12] = Toxoplasma gondii, Table 2, read-out: T. gondii EC50
[13] = Toxoplasma gondii, Table S1, ME49-FLuc tachyzoites, read-out: T. gondii EC50
[14] = Toxoplasma gondii, from 10-dose-response curve of Fig. 1, read-out: EC90, tachyzoite growth
[15] = PMA differentiated, read-out: THP-1 EC50
[16] = nuclei count, 44 h, read-out: A549 EC50
[17] = nuclei count, 44 h, read-out: HFF EC50
[18] = nuclei count, 44 h, read-out: SH-SY5Y EC50
[19] = nuclei count, 44 h after compound addition, read-out: HEPG2 EC50

Structure (SMILES) | EC50 log inhib vs normalized response [1, 9] | EC50 [1, 10] [nM] | EC50 [1, 11] [nM] | EC50 [1, 12] [nM] | EC50 [1, 13] [nM] | EC90 [1, 14] [nM] | EC50 (in vitro [2]; [15]) [nM] | EC50 (in vitro [2]; [16]) [nM] | EC50 (in vitro [2]; [17]) [nM] | EC50 (in vitro [2]; [18]) [nM] | EC50 (in vitro [2]; [19]) [nM] | SH-SY5Y fold selectivity [3] [fold] | THP-1 fold selectivity [4] [fold] | EC50 (in vitro [5]) [nM] | Cyst size (individual cysts) ([6]; 3XEC90, 2 days) | Cyst size (individual cysts) ([6]; EC90, 2 days) | effect on cyst size [6] | Plaque numbers ([7]; 3xEC90) | Plaque numbers ([7]; EC90) | EC50 [8] [nM] | further results
COc1ccc(NC(=O)N2CCCCN3[C@H](CN(C)S(C)(=O)=O)[C@H](c4ccc(C#Cc5ccccc5)cc4)[C@@H]3C2)cc1 [BRD8494] | 0.03476 | 34.8 | 34.8 | 35 | 34 | 95 | 461 | > 20000 | > 20000 | 1780 | > 20000 | 51.0 | 13.2 | > 20000 | 46.64 and 167.1 and 52.11 and 128.7 and 180.9 and 64.9 and 103 and 36.82 and 65.28 and 41.9 and 105.7 and 87.22 and 144.1 and 114.5 and 214.1 and 103.8 and 343.4 and 159.3 and 37.35 and 133.8 | 112 and 360 and 182.2 and 110.4 and 32.16 and 37.14 and 75.73 and 23.46 and 145.9 and 108.1 and 145.1 and 279 and 170.3 and 246.7 and 83.16 and 29.6 and 216.4 and 92.48 and 64.36 and 16.16 | significantly diminished cyst size | 0 | 0 | 26 | selectivity ratio (in vitro [5]): 571
COc1ccc(NC(=O)N2CCCCN3[C@H](CN(C)C)[C@H](c4ccc(C#Cc5ccccc5)cc4)[C@@H]3C2)cc1 [BRD7929] |  |  | 23 | 23 | 22 | 98 | 672 | 5370 | 7870 | 731 | 3060 |  |  | 7000 | 70.79 and 76.24 and 90.26 and 38.16 and 85.34 and 130.5 and 42.83 and 30.86 and 19.37 and 49.32 and 117.9 and 50.48 and 21.2 and 120.5 and 75.85 and 64.97 and 70.16 and 108.7 and 69.23 and 113 | 112.8 and 142 and 65 and 40.33 and 94.48 and 106.3 and 167.8 and 104.7 and 129.7 and 105.6 and 65.07 and 56.59 and 80.88 and 43.39 and 143.9 and 81.69 and 71.88 and 171.2 and 68.84 and 66.51 | significantly diminished cyst size | 0 | 0 | 13 | EC50 log inhib vs normalized response [1]: 0.0226; 3XEC90 ([1]; Fig 6A source data): 293.00; EC50 ([1]; ME49-FLuc, 10-point dose-response, two biological replicates, listed as BR7929, read-out: EC50, T. gondii tachyzoite growth): 22.6 nM; EC50 ([1]; Toxoplasma gondii, Fig 6A source data, in vitro tachyzoites, read-out: EC50): 23 nM; EC90 ([1]; Toxoplasma gondii, Fig 6A source data, in vitro tachyzoites, read-out: EC90): 98 nM; 3xEC90, tachyzoite growth ([1]; three times EC90): 0.293 µM
COc1ccc(NC(=O)N2CCCCN3[C@H](CO)[C@H](c4ccc(C#Cc5ccccc5)cc4)[C@@H]3C2)cc1 [BRD3444] | 0.02885 | 28.9 | 28.9 | 29 | 28 |  | 2580 | > 20000 | > 20000 | 2660 | 11300 | 91.9 | 88.9 | 7820 | 55.84 and 108.4 and 18.78 and 55.57 and 227.1 and 49.46 and 37.83 and 273.6 and 101.6 and 179.3 and 249.8 and 34.55 and 88.71 and 51.38 and 34.99 and 140.8 and 42.55 and 30.36 and 52.48 and 90.45 | 20.97 and 95.37 and 274.5 and 251.3 and 190.7 and 326.2 and 209.9 and 125.4 and 65.68 and 59.54 and 81.3 and 20.04 and 43.73 and 427 and 253.3 and 87.22 and 217.7 and 114.5 and 214.1 and 137.7 | significantly diminished cyst size | 0 | 5 and 0 | 12 | selectivity ratio (in vitro [5]): 270
CN(C[C@@H]1[C@H](c2ccc(C#Cc3ccccc3)cc2)[C@@H]2CN(C(=O)Nc3ccc(OC4CC4)cc3)CCCCN12)S(C)(=O)=O [BRD2987] | 0.01849 |  | 18.5 | 19 | 18 |  | 255 | 2170 | > 20000 | 2360 | > 20000 | 123.9 | 13.4 | > 20000 | 210 and 276.2 and 29.32 and 152.5 and 78.3 and 34.32 and 25.15 and 91.33 and 112.7 and 36.9 and 64.42 and 29.43 and 70.1 and 40.53 and 119.9 and 26.89 and 53.28 and 150.6 and 151.3 and 93.74 | 236.6 and 67.46 and 53.54 and 238 and 123.3 and 64.95 and 39.29 and 138.8 and 102.4 and 187.5 and 285.6 and 103.1 and 283.5 and 243.7 and 89.72 and 170.5 and 68.94 and 144.9 and 116.2 and 59.27 | significantly diminished cyst size | 0 and 5 | 0 | 2 | EC50 ([1]; Toxoplasma gondii, Fig S2 source data, read-out: T. gondii (EC50, Fig S2 source data)): 18.5 nM
